Read-outs that look alike come from different tables or passages of the source.
Legend:
[1] = tested on: TNFα production by THP-1 cells; test: TNF-alpha production by macrophages; assay type: cell-based, human; conditions: Homo sapiens; THP-1 cells stimulated with opsonized zymosan, 24 hours; read-out: IC50 TNFα production
Outline: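 THP-1 cells (1×10^6 per well, 10% FCS) were stimulated with 1 mg/ml serum-opsonized zymosan and incubated with drug in triplicate for 24 h at 37 °C. TNFα in the supernatants was quantified by sandwich ELISA (HRP/TMB read-out) against a recombinant human TNFα standard curve.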

human fibroblasts = test: Cell proliferation of fibroblasts; assay type: cell-based; conditions: Fibroblast, 72 hours, CYQUANT, read-out: IC50 cell proliferation of fibroblasts
Outline: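 Human fibroblasts plated at 600 cells/well, attached overnight, then exposed to drug in triplicate for 72 h at 37°C. Cell content read with CYQUANT GR dye in lysis buffer after 3-5 min at room temperature.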

[2] = tested on: IL-8 production by THP-1 cells; test: IL-8 production by macrophages; assay type: cell-based, human; conditions: Homo sapiens, read-out: IC50 IL-8 production
Description: The human macrophage cell line, THP-1 was plated in a 12 well plate such that each well contains 1×10^6 cells in 2 ml of media containing 10% FCS. Opsonized zymosan was prepared by resuspending 20 mg of zymosan A in 2 ml of ddH2O and homogenizing until a uniform suspension was obtained. Homogenized zymosan was pelleted at 250 g, resuspended in 4 ml of human serum for a final concentration of 5 mg/ml, and incubated in a 37° C. water bath for 20 minutes to enable opsonization. Geldanamycin was prepared in DMSO at a concentration of 10^−2 M and serially diluted 10-fold to give a range of stock concentrations (10^−8 M to 10^−2 M).
THP-1 cells were stimulated to produce IL-8 by the addition of 1 mg/ml opsonized zymosan. Geldanamycin was added to THP-1 cells by directly adding DMSO stock solutions, prepared earlier, at a 1/1000 dilution, to each well. Each drug concentration was tested in triplicate wells. Plates were incubated at 37° C. for 24 hours.
After a 24-hour stimulation, supernatants were collected to quantify IL-8 production. IL-8 concentrations in the supernatants were determined by ELISA using recombinant human IL-8 to obtain a standard curve. A 96-well MAXISORB plate was coated with 100 μL of anti-human IL-8 Capture Antibody diluted in Coating Buffer (0.1M sodium carbonate pH 9.5) overnight at 4° C. The dilution of Capture Antibody used was lot-specific and was determined empirically. Capture antibody was then aspirated and the plate washed 3 times with Wash Buffer (PBS, 0.05% TWEEN-20). Plates were blocked for 1 hour at room temperature with 200 μL/well of Assay Diluent (PBS, 10% FCS pH 7.0). After blocking, plates were washed 3 times with Wash Buffer. Standards and sample dilutions were prepared as follows: (a) sample supernatants were diluted 1/100 and 1/1000; (b) recombinant human IL-8 was prepared at 200 pg/ml and serially diluted to yield as standard curve of 3.1 pg/ml to 200 pg/ml Sample supernatants and standards were assayed in triplicate and were incubated at room temperature for 2 hours after addition to the plate coated with Capture Antibody The plates were washed 5 times and incubated with 100 μL of Working Detector (biotinylated anti-human IL-8 detection antibody+avidin-HRP) for 1 hour at room temperature. Following this incubation, the plates were washed 7 times and 100 μL of Substrate Solution (Tetramethylbenzidine, H2O2) was added to plates and incubated for 30 minutes at room temperature. Stop Solution (2 NH2SO4) was then added to the wells and a yellow color reaction was read at 450 nm with A correction at 570 nm. Mean absorbance was determined from triplicate data readings and the mean background was subtracted. IL-8 concentration values were obtained from the standard curve. […] The IC50 values for the following additional compounds were determined using this assay: IC50 (nM): 17-AAG, 56; mycophenolic acid, 549; resveratrol, 507; rapamycin, 4; 41; SP600125, 344; halofuginone, 641; D-mannose-6-phosphate, 220; epirubicin hydrochloride, 654; topotemay, 257; mithramycin, 33; daunorubicin, 421; celastrol, 490; chromomycin A3, 36

Smooth muscle cells = test: Proliferation of smooth muscle cells; assay type: cell-based; conditions: 72 hours, CYQUANT; read-out: IC50 proliferation of smooth muscle cells
Outline: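 Smooth muscle cells at 600 cells/well, exposed to paclitaxel (DMSO stocks 10^−8 to 10^−2 M) in triplicate for 72 h at 37 °C. Proliferation read with CyQUANT GR dye in lysis buffer.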

| IC50 ([2]; THP-1 cells stimulated with opsonized zymosan, 24 hours) | Structure (SMILES) | IC50 [1] | IC50 (human fibroblasts) | IC50 ([2]; THP-1, 24 h) | IC50 (Smooth muscle cells) |
| --- | --- | --- | --- | --- | --- |
| – | CC1=C(O)C(=O)C=C2C1=CC=C1[C@@]2(C)CC[C@@]2(C)[C@@H]3C[C@](C)(C(=O)O)CC[C@]3(C)CC[C@]12C [celastrol] | 87 nM | 100 to 600 nM | 490 nM | 493 nM |
| 549 nM | COc1c(C)c2c(c(O)c1C/C=C(\C)CCC(=O)O)C(=O)OC2 [mycophenolic acid] | 756 nM | 100 to 600 nM | – | 579 nM |

Source: patent publication US20090226500A1, “SUTURES AND ANTI-SCARRING AGENTS” (Angiotech Pharmaceuticals, Inc, priority 2006, published 2009)
